What was measured:
[1] = tested on: collagen induced arthritis (CIA); assay: Collagen induced arthritis (CIA) in DBA/1 mice; type: in vivo, mouse
Experimental: CIA in DBA/1 mice was induced by immunization with collagen type II emulsified in complete Freund's adjuvant essentially as previously described, [43]. Mice were assessed for disease clinical signs two to three times per week. Clinical signs of arthritis were determined using the following scoring system: 0: no evidence of erythema and swelling; 1: erythema and mild swelling confined to the […] or ankle joint; 2: erythema and mild swelling extending from the ankle to the […]; 3: erythema and moderate swelling extending from the ankle to metatarsal joints; 4: erythema and severe swelling encompassing the ankle, foot and digits, or ankylosis of the limb.
Paraffin-embedded joint tissue samples were sectioned and stained with hematoxylin and eosin as previously described, [44]. Arthritic histopathology in mice was assessed (in a blinded fashion from 3 independent examiners) using a semi-quantitative scoring system as previously described for CIA in a DBA/1 (H-2^q) background. 0: no detectable pathology; 1: hyperplasia of the synovial membrane and presence of polymorphonuclear infiltrates – mild tendonitis may be present; 2: pannus and fibrous tissue formation and focal subchondrial bone erosion: 3: cartilage destruction and bone erosion in multiple foci; 4: extensive cartilage destruction and bone erosion- bone outline structure lost. Presented results refer to an average score of all four joints.
To examine the therapeutic potential of targeting the ATX/LPA axis in RA, BrP-LPA was injected intraperitoneally twice a week (following immunization boost; Fig. 4A), in groups of mice undergoing the development of collagen induced arthritis (CIA).
A. Schematic representation of immunization and drug administration schemes. DBA/1 mice subjected to CIA were treated intraperitoneally with vehicle, BrP-LPA (10 mg/kg), or dexamethasone (Dex, 3 mg/kg) twice a week. B–C. […] Data are pooled from two different experiments (n = 10). […] Joint sections were assessed histologically in a blinded manner by three independent examiners. Data are shown as mean joint values per mouse ± SD. […] Levels of CII-specific Abs were determined by ELISA in mouse sera.

[2] = Mouse pharmacokinetics, plasma BrP-LPA by HPLC-MS/MS; type: in vivo; settings: 10 mg/kg i.p.
Experimental: BrP-LPA, LPA species (C14:0, C16:0, C18:0, C18:1 and C20:4) and LPC species (C14:0, C16:0, C18:0, C18:1 and C20:0) were measured in plasma with HPLC-ESI/MS/MS using RSLCnano system (Ultimate 3000) coupled in-line with an LTQ Orbitrap XL mass spectrometer (Thermo Scientific, Waltham, MA, USA). BrP-LPA and lipid (LPA, LPC) extraction from plasma was performed on ice according to the Folch method with minor modifications. Plasma samples (50 ul) were mixed with 950 ul PBS prior to extraction and spiked with the internal standard mix (17:1 LPA/LPC). Samples were extracted under neutral conditions with 4 ml of ice-cold CHCl3/CH3OH (2/1, v/v) followed by 2 ml of PBS-saturated ice-cold CHCl3/CH3OH (2/1, v/v). Each extraction step was followed by a 60 s vortex and a 1 min centrifugation step in a bench-top clinical centrifuge in a cold room at 4°C at 3,000 rpm. The lower chloroform organic phases from both neutral extraction steps were pooled and kept for LPC measurement. The remained aqueous phase was chilled on ice for 10 min and extracted twice with ice-cold acidified with acetic acid CHCl3/CH3OH (2/1, v/v) as above. The lower organic phases were pooled, neutralized to pH 6–7 (checked with pH paper as above) on ice and kept for LPA, BrP-LPA measurements. The kept neutral lower organic phase of neutral extraction and the neutralized acidified lower organic phase were evaporated to dryness. The resulting residues were resuspended in 0.15 ml of isopropanol and after brief vortex mixing the solution was transferred to the auto sampler vial. Recovery of LPA species was between 60% and 95%. Recovery of BrP-LPA was 70% and the recovery of LPC species was between 80% and 100%. […] The precursor ion mass was used for the quantification while lipid identity was confirmed by precursor ion fragmentation using collision induced dissociation (CID). […]
BrP-LPA was administered intraperitoneally (IP) at 10 mg/kg in water to 6–8 week old female mice. […] Plasma samples were then analysed for plasma ATX activity and BrP-LPA/LPA/LPC levels with the TOOS activity assay and HPLC-MS/MS respectively. […]

[3] = 10 mg/kg i.p. twice a week, DBA/1 mice

SMILES: CCCCCCCCCCCCCCCC(=O)OC[C@@H](O)CC(Br)P(=O)(O)O (stereo partly drawn) [BrP-LPA, 1-bromo-3(S)-hydroxy-4-(palmitoyloxy)butyl-phosphonate]
- development of arthritis (number of arthritic limbs per mouse) [1, 3]: development of arthritis in significantly fewer mice
- severity per arthritic limb [1, 3]: reduced severity per arthritic limb
- histopathological analysis of the joints ([1]; 10 mg/kg i.p. twice a week, H&E): marked decreased inflammation and synovial hyperplasia
- gross physiology / systemic side effects ([1]; 10 mg/kg i.p. twice a week, data not shown): no appreciable alternation of gross physiology
- levels of anti-collagen antibodies ([1]; ELISA in mouse sera): did not interfere with the levels of anti-collagen antibodies
- BrP-LPA levels in joint tissue versus liver tissue and plasma ([1]; data not shown): persist for longer in joint tissue
- LPA (or LPC) levels in plasma or joint tissue at end of monitoring ([1]; three days after the last injection, data not shown): no changes in LPA (or LPC) levels were detected
- Cmin ([2]; at 16 h): 0.15 µM
- Cmax ([2]; female mice): 8 µM
- t1/2 ([2]; female mice): 50 min

From publication PMC3726599, “A Metabolically-Stabilized Phosphonate Analog of Lysophosphatidic Acid Attenuates Collagen-Induced Arthritis” (PLoS ONE, 2013)
